Assay results as given in US20240325328A1, “TREATMENT OF BRAIN […] CNS […] ILLUDINS OR HYDROXYLUREAMETHYL ACYLFULVENE” (Lantern Pharma Inc., priority 2021, published 2024).

Experiments:
[1] = test system: 3D models of patient-derived xenograft (PDX) derived brain metastases of primary lung and breast cancers; test: Potency in 3D models of PDX-derived brain metastases; type: cell-based; details: 72-hour treatment period, various brain metastasis models, range over models and testing conditions
[2] = test system: blood brain barrier in vitro 3D model (co-cultured brain endothelial cells, pericytes and astrocytes); test: Impact on cell viability and BBB integrity in 3D BBB model; type: cell-based, human; details: 3D BBB model, compound treatment
Text: (§1) Hydroxy UreaMethyl Acylfulvene having a negative chirality or LP-184 permeates the blood brain barrier in vitro 3D model, which closely recapitulates the human blood brain barrier. This model mimics transport properties of the BBB due to the formation of tight junctions, higher expression of specific carriers, and/or great cell viability. This 3D in vitro model of the BBB created by co-culturing brain endothelial cells, with pericytes and astrocytes layered in an insert, improves endothelial cell polarization, and enhances the formation of tight junctions, provides better endothelial cell-to-cell contact that is important for barrier development, and prevents the dilution of secreted neurotrophic factors. These conditions collectively lead to the development of an in vitro model that mimics the BBB.
(§2) This assay leverages the novel 3D BBB model that allows studying both compound transport across the barrier as well as the effect of compounds on the structure and function of the BBB. […] LP-184 was as effective as the standard of care drug TMZ in penetrating the blood brain barrier. Apparent BBB permeability measured for TMZ was 1.72*10^−4 cm/s at 30 minutes and for LP-184 was 1.53*10^−4 cm/s at 30 minutes (FIG. 1).

[3] = Pharmacokinetics of LP-184 in plasma, normal brain and brain tumor; type: in vivo, mice
[4] = test system: blood brain barrier in vitro 3D model (co-cultured brain endothelial cells, pericytes and astrocytes); test: Apparent BBB permeability in 3D in vitro blood brain barrier model; type: in vitro ADME, human; details: 3D BBB model, at 30 minutes
Text: as §1, §2

[5] = as above; type: in vitro ADME, human; details: human, 3D BBB model
Text: as §1, §2

[6] = Contralateral Normal Brain, 4 mg/kg IV
[7] = Peritumoral Normal Brain, 4 mg/kg IV

CC1=C(CN(O)C(N)=O)C2=C(C)C3(CC3)[C@@](C)(O)C(=O)C2=C1 [LP-184, Hydroxy UreaMethyl Acylfulvene]
IC50 [1]: 88 to 4280 nM | BBB integrity [2]: BBB integrity was not compromised | Impact on cell viability [2]: insignificant impact on cell viability | Brain Tissue/Plasma Ratio ([3]; Brain Tumor, 4 mg/kg IV): 0.200 | Half-Life ([3]; Brain Tumor, 4 mg/kg IV): 16.9 min | Tmax ([3]; Brain Tumor, 4 mg/kg IV): 5 min | Brain Tissue/Plasma Ratio [3, 6]: 0.077 | Half-Life [3, 6]: 26.6 min | Tmax [3, 6]: 15 min | AUC0-t ([3]; Contralateral Normal Brain, 4 mg/kg IV, Mean ± SEM): 123 ± 15.9 ng·h/g | Brain Tissue/Plasma Ratio [3, 7]: 0.103 | Half-Life [3, 7]: 23 min | Tmax [3, 7]: 15 min | AUC0-t ([3]; Peritumoral Normal Brain, 4 mg/kg IV, Mean ± SEM): 165 ± 11.6 ng·h/g | Half-Life ([3]; Plasma, 4 mg/kg IV): 14.2 min | Tmax ([3]; Plasma, 4 mg/kg IV): 5 min | AUC0-t ([3]; Plasma, 4 mg/kg IV, Mean ± SEM): 1592 ± 48.7 ng·h/mL | Cmax ([3]; Plasma, 4 mg/kg IV, Mean ± SEM): 3438 ± 125^ ng/ml | brain tumor exposure relative to plasma ([3]; based on AUC): ~20% | brain tumor exposure compared to normal brain ([3]; higher in brain tumor): ~2 fold | clearance ([3]; mice with tumors): 39.82 mL/min/kg | clearance ([3]; non-tumored mice): 88.07 mL/min/kg | Apparent BBB permeability [4]: 1.53*10^−4 cm/s

Cn1nnc2c(C(N)=O)ncn2c1=O [TMZ, Temozolomide, reference compound]
Papp at 30 min [5]: 172 ×10⁻⁶ cm/s
